From publication PMC6916019, “In vitro anti-malarial efficacy of chalcones: cytotoxicity profile, mechanism of action and their effect on erythrocytes” (Malaria Journal, 2019)
In brackets after ≈: the same amount, converted by molar mass.

Legend:
[1] = tested on: haemozoin (β-haematin) production in P. falciparum cultures; assay: Haemozoin inhibition assay in P. falciparum cultures; format: cell-based, Plasmodium falciparum; settings: drug near IC50 concentration, 48 h, untreated control 547.61 ± 9.52
Protocol: Briefly, the test cultures were centrifuged for 5–10 min at 1300 rpm to dispose of the culture medium. Infected erythrocyte pellet (mingled of β-haematin and erythrocyte membrane) were exposed to 0.01% saponin lysis for 10 min at 25 °C to lyse erythrocyte to release parasites. […] The haemozoin content was quantified by taking the absorbance at 400 nm and using a standard curve prepared from β-haematin. The amount of haemozoin formed in relation to control was calculated. All assays were performed in triplicate.

[2] = Haemolysis assay on normal erythrocytes
Protocol: (§5) Briefly, fresh erythrocytes were centrifuged for 5 min at 1600 rpm for at least thrice in PBS and then the remaining pellet was re-suspended in PBS at 2% hematocrit. One hundred microlitres of this suspended pellet was added to 96-well sterile culture plate having test compounds at different desired concentrations. PBS alone (for baseline values) and 0.4% Triton X-100 in PBS (for 100% haemolysis) were employed as controls. After keeping at 37 °C for 3 h, the test samples were centrifuged and the supernatant was used for determination of the haemolytic activity quantified in terms of haemoglobin release as monitored spectrophotometrically by taking absorbance at 415 nm [33]. The experiment was done in triplicate and the mean ± SD was calculated [33, 34]. %Haemolysis=[Absorbanceofsample415nm-Absorbanceofblanksample415nm/Absorbanceofpositivecontrol415nm]∗100

[3] = MTT cytotoxicity / cell viability assay; settings: human
Protocol: (§6) Cytotoxicity of the compounds on mammalian cells were accomplished employing HeLa cell line (NCCS, Pune) cultured in DMEM supplemented with 10% FBS by the MTT (3-(4,5-dimethylthiazol-2-yl)-2,5-diphenyltetrazolium bromide) microenzymatic method with certain modifications [32]. Briefly, cells (10^4 cells/200 μL/well) were seeded into 96-well flat-bottom sterile tissue culture plates in complete medium. After 24 h of seeding, the test compounds at different dilutions were added and kept for another 24 h in a humidified chamber with 5% CO2 at 37 °C. Twenty microlitres of MTT (5.00 mg/mL in 1XPBS) stock solution were pipetted into each well, mixed and incubated for at least 3–4 h. After incubation, the plates were centrifuged at 1500 rpm for 5 min. The supernatant was disposed cautiously and 100 μL of DMSO were added to each well to lyse the cell and dissolve the insoluble purple formazan product into a coloured solution. Absorbance was taken at 570 nm to determine formazan formation as a measurement of cell viability. Experiments were performed in triplicate.

[4] = tested on: P. falciparum chloroquine sensitive strain (MRC-2); assay: microbe, parasite or virus in culture
Protocol: (§1) These strains were perpetuated in vitro in continuous culture according to the method of Trager and Jensen with slight modifications. Briefly, both sensitive and resistant strains of P. falciparum were maintained in A+ erythrocytes in RPMI-1640 medium (having glutamine, but without any sodium bicarbonate) comprising 1.00 g of dextrose, 5.94 g of HEPES buffer, 40.00 mg of gentamycin. Additionally supplemented with 5% sodium bicarbonate and 10% (v/v) inactivated human AB+ serum then incubated in gas mixture of 5% CO2, 5% O2 and 90% N2 at 37 °C. Parasitized erythrocytes at initial 5% haematocrit were suspended in above mentioned culture medium and parasitaemia was regularly checked to maintain level between 2 and 4% with further sub-culturing for parasitaemia beyond 5%. Growth and multiplication of parasite was monitored by microscopy using Giemsa-stained slides.
(§2) To obtain ring stages of the parasite, the cultures were synchronized using D-sorbitol. The cultures, with majority of ring stages, were treated with equal volume of aqueous 5% D-sorbitol for 5 min and then after centrifugation pellet were suspended in complete medium and fresh erythrocytes synchronized culture with 1% parasitaemia and 5% haematocrit were used for compound concentration response assay.
(§3) The concentration of each test compound needed to hinder multiplication of parasites by 50% (IC50) against P. falciparum strains were obtained through concentration response assay performed in 96-well sterile tissue culture plates. Synchronized parasite cultures were applied to different doses of each compound. Dilutions were performed in gentamycin-free culture medium, and incubated at 37 °C having gaseous mixture (5% CO2, 5% O2 and 90% N2) supply for 24 h. The results were expressed as IC50 values computed from HN-NonLin Regression analysis, as well as mean percentage inhibition ± standard error examined by thick smear Giemsa stained slides. %ParasiteInhibition29,30=100-TotalnumberofSchizontsintestwells/TotalnumberofSchizontsincontrolwell∗100
(§4) Parasite at ring stage was used for compound concentration response assay with parasitaemia of 1% at 5% haematocrit. […] The IC50 and IC90 values of all compounds were determined and the resistance index between the two sensitive and resistant strains was calculated (Table 2). […] The percentage inhibition in schizont maturation was also calculated after incubation of ring stage P. falciparum till 24 h at the same range of drug concentrations (Table 3).

normal erythrocytes = assay: Haemolysis assay on normal erythrocytes; settings: Conc. = 12.5 μg/mL, 3 h, 37 °C
Protocol: as §5

[5] = tested on: P. falciparum chloroquine resistant strain (RKL-9); assay: WHO Mark III schizont maturation inhibition assay, chloroquine resistant strain; format: cell-based, Plasmodium falciparum
Protocol: as §1, §2, §3, §4

HeLa cell line = assay: MTT cytotoxicity / cell viability assay; settings: MTT, 24 h, not in table head
Protocol: as §6

Plasmodium = settings: comparison value, reference not given; cited from earlier work
[6] = schizont maturation, 24 h, ring stage

SMILES: CCN(CC)CCCC(C)Nc1ccnc2cc(Cl)ccc12 (stereo not shown) [CHL, chloroquine, reference compound]
- Amount of haemozoin production [1]: 359.52 ± 2.38 ng/mL
- Amount of haemozoin production ([1]; listed as chloroquine): 359.52 ± 2.38 ng/mL
- hemolysis at 3 h, 12.5 μg/mL [2]: 0.86 ± 0.001%
- viability at 24 h, 12.5 µg/mL [3]: 58 ± 0.06%
- inhibition at 6.25 µg/mL ([4]; Plasmodium falciparum, 24 h, read-out: % Schizont maturation inhibition ± SD (MRC-2)): 88.39 ± 0.71%
- IC50 ([4]; Plasmodium falciparum, 24 h, read-out: P. falciparum Chloroquine^s Strain (MRC-2) IC50): 0.17 µg/mL (≈ 0.531 µM)
- IC90 ([4]; Plasmodium falciparum, 24 h, read-out: P. falciparum Chloroquine^s Strain (MRC-2) IC90): 1.14 µg/mL (≈ 3.56 µM)

SMILES: O=C(/C=C/c1cc2ccccc2[nH]1)c1ccc(Cl)cc1 [Chalcone 9]
- % Hemolysis ± SD (normal erythrocytes): 1.30 ± 0.009%
- % Schizont maturation inhibition ± SD (RKL-9) ([5]; Conc. = 6.25 μg/mL, 24 h): 48.87 ± 25.46%
- Selective index (SI) P.falciparum chloroquine^R (RKL-9) ([5]; SI = CC50 (HeLa)/IC50 (RKL-9)): 7.85
- Resistance Index (RI) IC50 (RKL-9)/IC50 (MRC-2) ([5]; ratio of IC50 resistant / sensitive strain): 0.84
- P. falciparum Chloroquine^R Strain (RKL-9) IC50 [5, 6]: 0.21 µg/mL
- P. falciparum Chloroquine^R Strain (RKL-9) IC90 [5, 6]: 0.95 µg/mL
- HeLa Cell CC50 (HeLa cell line): 1.65 µg/mL
- % Schizont maturation inhibition ± SD (MRC-2) ([4]; Conc. = 6.25 μg/mL, 24 h): 50.32 ± 33.23%
- Selective index (SI) P.falciparum chloroquine^s (MRC-2) ([4]; SI = CC50 (HeLa)/IC50 (MRC-2)): 6.60
- P. falciparum Chloroquine^s Strain (MRC-2) IC50 [4, 6]: 0.25 µg/mL
- P. falciparum Chloroquine^s Strain (MRC-2) IC90 [4, 6]: 0.96 µg/mL

SMILES: C=CC(C)(C)c1cc(/C=C/C(=O)c2ccc(O)cc2)c(OC)cc1O [licochalcone]
- IC50 of licochalcone (Plasmodium): 1.43 µg/mL
